Measured values taken from patent publication US8080657B2, “Compounds of reverse turn mimetics and the use thereof” (Choongwae Pharma Corporation, priority 2008, dated 2011).
Like-named read-outs stand apart in the source and are kept apart here.

Experiments:
MV-4-11 cells = assay: Cell growth inhibition assay on AML cancer cells (CellTiter 96); format: cell-based; conditions: Homo sapiens, MV4-11
Description: The lower GI50 value means the higher inhibition activity.
Cell Growth Inhibition Activity on AML Cancer Cells (Cell Growth Inhibition Assay)
Cell growth Inhibition assay was performed to investigate the rate of inhibition of cell proliferation by the test compounds. MV-4-11 (human, Acute Myeloid Leukemia cell line) cells were cultured in Iscove's modified Dulbecco's medium (IMDM) including 10% fetal bovine serum (FBS), 1× penicillin/streptomycin (10,000 units/ml Penicillin, […] Streptomycin in 0.85% NaCl). MV-4-11 cells were harvested with IMDM medium and 5×10^4 cells/well were transferred to each well of 96 well culture plates (Nunc, #167008). The test compounds were treated with the serial dilution and duplicated for each concentration. For the serial dilution, the test compounds were repeatedly diluted with the same volume of media onto 96-well assay block (costar, #3956). After the dilution, each compound was added to each well. The background absorbance was also measured during the test compounds treatment by adding the IMDM media in replacement of test compound to the negative control plate. The plates were incubated for 3 days (72 hours) at 37° C. in the humidified incubator containing 5% CO2. On the last day, 20 μL of CellTiter 96 Aqueous One Solution (Promega #G3581) was added to the culture in each well and the plates were incubated for a few hours at 37° C. in the humidified incubator containing 5% CO2. After the incubation, the absorbance of each cell was measured at 490 nm using an EnVision (Perkinelmer, USA). The GI50 values were calculated using a Prism 3.0 program.

[1] = target: T1, cDNA-expressed human hepatic CYP3A4 (Homo sapiens, UniProt P08684); assay: P450 CYP3A4 inhibitory activity screening (BFC substrate, fluorescence); format: biochemical
T1 construct: purchased BD Gentest 456202
Description: P450 CYP3A4 Inhibitory Activity Screening
Assay was conducted in a 200 μL volume in 96-well microtiter plates using cDNA-expressed human hepatic CYP3A4 (supersome, BD Gentest™ #456202). 7-Benzyloxy-4-trifluoromethyl-coumarin (BFC) was used as a substrate for CYP3A4. Test articles and substrate BFC were dissolved in 100% acetonitrile. The final volume of acetonitrile in the incubation mixture was less than 1% (volume/volume). Potassium phosphate buffer (pH 7.4, final concentration 0.1 M), MgCl2 (final concentration 8.3 mM), EDTA (final concentration 1.67 mM), a test article stock solution, a CYP3A4 supersome and NADPH (final concentration 0.25 mM) were added to each well. The reaction was initiated by the addition of substrate (BFC, final concentration 30 µM) after a 10 min pre-incubation at 37° C. After 10 min incubation at 37° C., the reaction was terminated by the addition of 75 μL of acetonitrile:0.5 M Tris-base=4:1 (volume/volume). Thereafter, Fluorescent signal was measured using a fluorometer. BFC metabolite, 7-hydroxy-4-trifluoromethyl-coumarin, was measured using an excitation wavelength of 409 nm and an emission wavelength of 530 nm.

Wnt signaling = assay: TopFlash reporter gene bioassay in SW480 cells; format: cell-based; conditions: Homo sapiens, SW480, TopFlash reporter gene assay, inhibition of Wnt signaling; read-out: RGA, IC50 (μM) TopF
[2] = cell growth inhibition on AML cancer cells, MV-4-11, read-out: MV-4-11, GI50

T1 sequence (P08684 whole entry): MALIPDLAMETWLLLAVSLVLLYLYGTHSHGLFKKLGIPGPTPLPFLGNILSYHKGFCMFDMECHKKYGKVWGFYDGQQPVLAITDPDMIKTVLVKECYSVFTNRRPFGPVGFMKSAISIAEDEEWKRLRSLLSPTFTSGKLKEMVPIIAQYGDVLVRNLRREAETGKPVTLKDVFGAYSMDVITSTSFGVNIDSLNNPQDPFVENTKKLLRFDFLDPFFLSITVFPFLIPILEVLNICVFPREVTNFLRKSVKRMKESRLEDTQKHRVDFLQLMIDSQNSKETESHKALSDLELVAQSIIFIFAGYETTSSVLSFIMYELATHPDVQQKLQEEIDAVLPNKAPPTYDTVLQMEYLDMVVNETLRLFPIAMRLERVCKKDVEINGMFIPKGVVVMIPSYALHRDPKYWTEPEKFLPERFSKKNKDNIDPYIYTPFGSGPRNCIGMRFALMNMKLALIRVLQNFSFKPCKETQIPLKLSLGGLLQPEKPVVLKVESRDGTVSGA

SMILES | GI50 (MV-4-11 cells; MV-4-11 cells, 72 hours, read-out: GI50, cell growth inhibition of MV-4-11 AML cancer cells) | IC50 ([1]; human CYP3A4 supersome, substrate BFC, 10 min incubation at 37° C., read-out: IC50 values of Compounds against CYP3A4 activity) | IC50 (Wnt signaling) | GI50 (MV-4-11 cells; [2]) | IC50 ([1]; P450 CYP3A4 inhibitory activity screening, fluorescent assay, read-out: CYP3A4 inhibition, IC50 (μM) fluorescent assay)
C=CCN1CC(=O)N2[C@@H](Cc3ccc(O)cc3)C(=O)N(Cc3cccc(C(=O)NCCOC)c3)C[C@@H]2N1C(=O)NCc1ccccc1 [Compound B] | 0.188 µM | 34.6 µM | – | – | –
C=CCN1CC(=O)N2[C@@H](Cc3ccc(O)cc3)C(=O)N(Cc3cccc(NC(=O)OC)c3)C[C@@H]2N1C(=O)NCc1ccccc1 [compound 5] | – | – | 0.16 ± 0.08 µM | 0.05 µM | –
C=CCN1CC(=O)N2[C@@H](Cc3ccc(O)cc3)C(=O)N(Cc3cccc(C(=O)NCCOC)c3)C[C@@H]2N1C(=O)NCc1ccccc1 [compound 38] | – | – | – | 0.18 µM | 34.6 µM
C=CCN1CC(=O)N2[C@@H](Cc3ccc(O)cc3)C(=O)N(Cc3cccc(C(=O)N(C)C)n3)C[C@@H]2N1C(=O)NCc1ccccc1 [compound 45] | – | – | – | 2.79 µM | –
